{
  "source": "patent US10568857B2",
  "about": "“Method of treating renal system damage” (The University of Utah Research Foundation, priority 2008, dated 2020)",
  "key": {"[1]": {"tested_on": "B6129SF2/J mice (cisplatin-induced toxicity)", "test": "Effects of OA-NO2 on cisplatin-induced toxicity in mice", "type": "in vivo, mouse", "settings": "cisplatin 20 mg/kg i.p.", "procedure": "FIG. 1. A bar graph showing the plasma concentrations of Blood Urea Nitrogen (BUN) in mice under the conditions indicated. N=5-6. Data are mean±n SE. B6129S2/J mice (male, 3-4-mo-old) received vehicle (Control) or a single i.p. injection of cisplatin alone (20 mg/kg in saline). After 20 min, the cisplatin group was randomly divided to receive an i.p injection of OA-NO2 (400 mg/kg in ethanol) or an equivalent amount of ethanol at 6-h intervals for 48 h.\nMale 3-4-month-old B6129SF2/J mice were from Jackson Laboratories (Bar Harbor, Me.). All animals were housed in an air-conditioned room with a 12-hour light/dark cycle. All procedures and protocols were in accordance with guidelines set by the Laboratory Animal Care Committee at the University of Utah.\nProtocol for testing effects of OA-NO2 on cisplatin-induced toxicity in B6129SF2/J mice. B6129S2/J mice (male, 3-4-mo-old) received vehicle (saline) or a single i.p. (intraperitoneal) injection of cisplatin alone (20 mg/kg in saline). After 20 minutes, the cisplatin group was randomly divided to receive an i.p. injection of OA-NO2 (400 mg/kg in ethanol) or an equivalent amount of ethanol at 6-hour intervals for 48 hours. The control group also received an i.p. injection of the equivalent amount of ethanol at the same frequencies. At the end of the experiments, under isoflurane anesthesia, blood was withdrawn from the vena cava using 1 cc insulin syringe and kidneys were harvested for analysis of morphology and gene expression."}, "[2]": {"tested_on": "BALB/c mice (ADR nephropathy)", "test": "Adriamycin (ADR) nephropathy in mice, OA-NO2 pretreatment via osmotic mini-pump", "type": "in vivo, mouse", "settings": "for albuminuria (urinary albumin): control 33.39±3.50; for plasma albumin: control 1.01±0.15", "procedure": "Male BABL/C mice were purchased from the Jackson Laboratories (Bar Harbor, Me., USA). Mice were maintained in a temperature-controlled barrier facility with a 12:12-h light-dark cycle and were given free access to standard laboratory chow and tap water. Mice were randomized into three groups: 1) control, 2) Adriamycin (ADR), and 3) ADR+ nitro-oleic acid (OA-NO2). In Group 3, OA-NO2 (dissolved in ethanol) was administered at 5 mg/kg/day via subcutaneously implanted osmotic mini-pump and vehicle (ethanol) was given to the other two groups. This dose was chosen based a previous study (35). After 2 days of pretreatment with OA-NO2, Groups 2 and 3 received a single tail vein injection of ADR at 10 mg/kg. Group 1 received a single tail vein injection of saline. Twenty four-hour urine was collected with using metabolic cages. Seven days after ADR treatment, all mice were killed and kidneys were immediately harvested gene expression or histological analyses. All protocols employing mice were conducted in accordance the principles and guidance of the University of Utah Institutional Animal Care and Committee.\nUrine samples were centrifuged for 5 minutes at 10,000 rpm. Blood samples from anesthetized mice were collected by puncturing the vena cava using a 1-ml insulin syringe containing 50 μl of 1 mM EDTA in the absence of protease inhibitors. Urine and plasma albumin was determined using a murine microalbuminuria enzyme-linked immunosorbent assay kit (Cat#1011, EXOCELL). Plasma triglyceride level was determined using a LabAssay Triglyceride ELISA Kit (Cat#290-63701, WAKO). Urine and plasma levels of urea were measured by Urea Nitrogen Direct kit (Cat#0580-250, Stanbio Laboratory), and urine and plasma levels of creatinine were measured by Creatinine Liquicolor kit (Cat#0420-250, Stanbio Laboratory).\nUnder anesthesia, kidneys were removed and fixed with 4% paraformaldehyde. The tissues were subsequently embedded in paraffin and 4-μm sections were cut and stained with periodic acid Schiff (PAS). Glomerular sclerosis was assessed as follows using a semiquantitative score: grade 0, normal appearance; grade I, involvement of up to 25% of the glomerulus; grade II, involvement of 25 to 50% of the glomerulus; grade III, involvement of 50 to 75% of the glomerulus; grade IV, involvement of 75 to 100% of the glomerulus. A glomerulosclerosis index (GSI) was calculated by multiplying the number of glomeruli with a sclerosis score of I by one, the number with a score of II by two, III by three, and IV by four. These values were summed and divided by the number of glomeruli assessed, including those with a sclerosis score of zero. The SI for each kidney specimen was a sum of the points from 30 glomeruli. Tubulointerstitial injury (defined as tubular atrophy, dilatation, thickening of the basement membrane, protein cast) by semiquantitative analysis. Thirty cortical fields from each animal were examined at ×200 magnification and graded according to a scale of 0 to 4: 0, no tubulointerstitial injury 1, <25% of the tubulointerstitium injured; 2, 25% to 50% of the tubulointerstitium injured; 3, 51% to 75% of the tubulointerstitium injured; and 4, 76% to 100% of the tubulointerstitium injured. All sections were examined in blind manner.\nImmunohistochemical staining was performed. Anti-WT1 antibody was purchased from Dako (Mob437, Dako).\nTotal RNA was isolated using TRIzol (Invitrogen, Carlsbad, Calif.), and first-strand cDNAs were synthesized from 2 μg of total RNA in […] reaction using SuperScript (Invitrogen). The first strand cDNAs served as the template for quantitative PCR performed in Applied Biosystems 7900 Real Time PCR System using SYBR green PCR reagent (Applied Biosystems, Foster City, Calif., USA). The amplification was carried out for 40 cycles with conditions of 15-s denaturation at 95° C. […]"}, "[3]": {"tested_on": "human proximal tubular cells (HK2)", "type": "cell-based", "settings": "pretreatment 1 h with 1.5 μM OA-NO2, then 24 h 1 μM cisplatin", "procedure": "FIG. 6. Bar graphs show the effects of nitrated fatty acid OA-NO2 on cisplatin-induced apoptosis in vivo and in vitro. A), Caspase activity in the mouse kidney. N=5-6 in each group. B), Caspase activity in cultured human proximal tubular cells (HK2). Following pretreatment for 1 h with vehicle or 1.5 μM OA-NO2, the cells were exposed for 24 h to 1 μM cisplatin. N=3 in each group. Data are mean±SE. A single dose of i.p. injection of cisplatin induced renal dysfunction as indicated by the marked rise in plasma BUN (FIG. 1), accompanied by severe renal histological abnormalities characterized by distortion of the overall renal morphology, dilation of renal tubules, and appearance of protein cast (FIG. 2)."}, "[4]": {"settings": "OA-NO2 400 mg/kg i.p. at 6-h intervals for 48 h"}, "[5]": {"settings": "OA-NO2 400 mg/kg i.p. at 6-h intervals for 48 h, real time RT-PCR"}, "[6]": {"settings": "posttreatment OA-NO2 400 mg/kg i.p. at 6-h intervals for 48 h"}, "[7]": {"settings": "ADR+OA-NO2 group vs ADR, P<0.05"}, "[8]": {"settings": "OA-NO2 treatment in ADR mice, P<0.05"}, "[9]": {"settings": "OA-NO2 treatment in ADR mice, real-time PCR and Western blotting, P<0.05"}},
  "note": "Entries after “also recorded” stand apart in the source; their conditions may differ.",
  "data": [
    {"molecule": "nitrooleic acid [OA-NO2]", "values": [
      {"measurement": "activity of caspase in the mouse kidney", "setting": "[1]; [4]", "result": "attenuated or completely corrected"},
      {"measurement": "kidney thiobarbituric acid-reactive substances (TBARS)", "setting": "[1]; [4]", "result": "attenuated or completely corrected"},
      {"measurement": "plasma level of MPO", "setting": "[1]; OA-NO2 400 mg/kg i.p. at 6-h intervals for 48 h, EIA", "result": "reduces; also recorded: attenuated or completely corrected"},
      {"measurement": "kidney expression of NADPH oxidase subunit gp91phox", "setting": "[1]; [5]", "result": "attenuated or completely corrected"},
      {"measurement": "kidney expression of NADPH oxidase subunit p47phox", "setting": "[1]; [5]", "result": "attenuated or completely corrected"},
      {"measurement": "plasma BUN (renal function)", "setting": "[1]; [6]", "result": "improves renal function; also recorded: markedly attenuated"},
      {"measurement": "renal histological abnormalities (renal morphology, dilation of tubules, protein cast)", "setting": "[1]; [6]", "result": "improves renal morphology; also recorded: markedly attenuated"},
      {"measurement": "renal ZO-1 mRNA (qRT-PCR)", "setting": "[2]; ADR+OA-NO2 group", "result": "significant elevation"},
      {"measurement": "number of WT1-positive cells (podocytes), immunohistochemistry", "setting": "[2]; ADR+OA-NO2 group vs ADR group", "result": "partially restored"},
      {"measurement": "plasma BUN", "setting": "[2]; ADR+OA-NO2 group vs ADR group", "result": "significantly attenuated"},
      {"measurement": "plasma creatinine", "setting": "[2]; ADR+OA-NO2 group vs ADR group", "result": "significantly attenuated"},
      {"measurement": "renal gp91phox protein (immunoblot)", "setting": "[2]; ADR+OA-NO2 group vs ADR, P<0.01", "result": "further confirmed at the protein level"},
      {"measurement": "renal mRNA expression of gp91phox", "setting": "[2]; [7]", "result": "the increase was less"},
      {"measurement": "renal mRNA expression of p47phox", "setting": "[2]; [7]", "result": "the increase was less"},
      {"measurement": "plasma triglyceride", "setting": "[2]; ADR+OA-NO2 group, OA-NO2 5 mg/kg/day", "result": "212.70 ± 39.22", "unit": "mg/dL"},
      {"measurement": "albuminuria (urinary albumin)", "setting": "[2]; ADR+OA-NO2 group, day 5 after ADR 10 mg/kg i.v., OA-NO2 5 mg/kg/day s.c. mini-pump from 2 days before", "result": "342.40±33.26", "unit": "μg/24 h"},
      {"measurement": "plasma albumin", "setting": "[2]; ADR+OA-NO2 group, day 7 after ADR, OA-NO2 5 mg/kg/day", "result": "0.58 ± 0.13", "unit": "g/dL"},
      {"measurement": "mice having mild ascites at sacrifice", "setting": "[2]; ADR+OA-NO2 mice, OA-NO2 5 mg/kg/day", "result": 20, "unit": "%"},
      {"measurement": "glomerulosclerotic index (GSI), PAS staining", "setting": "[2]; ADR+OA-NO2 vs ADR, P<0.05", "result": "ameliorates glomerulosclerosis; also recorded: marked reduction"},
      {"measurement": "albuminuria (urinary albumin), time course", "setting": "[2]; ADR+OA-NO2 vs ADR, day 3 and day 7 after ADR injection", "result": "ameliorates albuminuria; also recorded: These changes were observed at day 3 and maintained at day 7"},
      {"measurement": "tubulointerstitial lesion (TILI)", "setting": "[2]; ADR+OA-NO2 vs ADR, day 8 after ADR injection", "result": "ameliorates"},
      {"measurement": "renal expression of IL-1β (qRT-PCR)", "setting": "[2]; OA-NO2 in ADR mice", "result": "suppressed"},
      {"measurement": "renal expression of MCP-1 (qRT-PCR)", "setting": "[2]; OA-NO2 in ADR mice", "result": "suppressed"},
      {"measurement": "renal expression of TNF-α (qRT-PCR)", "setting": "[2]; OA-NO2 in ADR mice", "result": "suppressed"},
      {"measurement": "renal WT1 protein (immunoblotting)", "setting": "[2]; OA-NO2 pretreatment in ADR mice, P<0.05", "result": "prevented the downregulation"},
      {"measurement": "renal desmin mRNA (qRT-PCR)", "setting": "[2]; OA-NO2 treatment in ADR mice", "result": "prevented this increase"},
      {"measurement": "renal TGF-β mRNA expression", "setting": "[2]; [8]", "result": "dramatic suppression"},
      {"measurement": "renal collagen III mRNA expression", "setting": "[2]; [8]", "result": "dramatic suppression"},
      {"measurement": "renal fibronectin (FN) expression", "setting": "[2]; [9]", "result": "prevented the up-regulation"},
      {"measurement": "renal α-SMA expression", "setting": "[2]; [9]", "result": "prevented the up-regulation"},
      {"measurement": "kidney TBARS", "setting": "[2]; OA-NO2 treatment vs ADR mice", "result": "trend of reduction of TBARS levels in response to OA-NO2 treatment but this did not reach a statistical significance"},
      {"measurement": "plasma TBARS", "setting": "[2]; OA-NO2 treatment vs ADR mice", "result": "markedly attenuated"},
      {"measurement": "urinary TBARS", "setting": "[2]; OA-NO2 treatment vs ADR mice", "result": "markedly attenuated"},
      {"measurement": "cisplatin-induced caspase activity", "setting": "[3]", "result": "almost completely normalized"}
    ]},
    {"molecule": "COc1cccc2c1C(=O)c1c(O)c3c(c(O)c1C2=O)C[C@@](O)(C(=O)CO)C[C@@H]3O[C@H]1C[C@H](N)[C@H](O)[C@H](C)O1", "note": "[ADR, doxorubicin (Adriamycin), reference compound]", "values": [
      {"measurement": "plasma triglyceride", "setting": "[2]; ADR group (ADR 10 mg/kg alone)", "result": "396.18 ± 70.94", "unit": "mg/dL"},
      {"measurement": "plasma albumin", "setting": "[2]; ADR group (ADR 10 mg/kg alone), day 7", "result": "0.28 ± 0.08", "unit": "g/dL"},
      {"measurement": "albuminuria (urinary albumin)", "setting": "[2]; ADR group (ADR 10 mg/kg tail vein alone), day 5", "result": "508.89±48.52", "unit": "μg/24 h"},
      {"measurement": "mice with severe ascites at sacrifice", "setting": "[2]; ADR mice (ADR 10 mg/kg alone)", "result": "Ninety"}
    ]}
  ]
}
